“Also recorded” adds a separate entry of the source.
Columns and labels:
MAT-Lu cells [1] = assay: Boyden chamber motility assay, MAT-Lu cells; assay type: cell-based, rat; conditions: for Mat-Lu cells crossing filter in % of control +/− SEM: 4 hr, thrombin 200 nM, CDC 126 nM
Method: Boyden Chamber Motility Assays. Disposable transwells (Coming Costar, Cambridge, Mass.) of 6.5 mm diameter and 8 μm pore size were coated with 5 μg/ml laminin on both sides. The membranes were washed twice with Hank's balanced salt solution (HBSS) and then pre-incubated with growth medium containing 10% fetal bovine serum. Trypsinized cells (5×10^4) were plated into the upper well. After 1 hour the upper chamber was washed twice with HBSS, filled with serum-free medium and moved to a new lower chamber, also filled with serum-free medium, with or without thrombin and/or 0.75 nM insulin-like growth factor-1 (IGF-1). After incubation for 4 hrs, cells on the membrane were fixed and stained with a Diff-Quick kit (Baxter Scientific Products). Cells on the upper side were scraped off, the membranes were removed, mounted onto microscope slides and analyzed. Each filter was scanned twice at right angles under the light microscope with a 16×phase contrast objective lens. A continuous series of 20 frames for each filter was digitized using a high-resolution CCD camera (Kodak) and stored in a Power Macintosh computer. The two most peripheral pairs of frames from each scan were deleted so that 12 frames were analyzed for each filter. Cells that had crossed the membrane were counted and tabulated. The sum of the cells counted in the twelve frames was an individual data point.

MAT-Lu cells [2] = assay: Pseudopod morphometry (pseudopod length assay), MAT-Lu cells; assay type: cell-based, rat
Method: Pseudopod Morphometry. To study the effects of various agents on pseudopods on a short-term basis, we measured pseudopod lengths. Cells plated in 35-mm diameter dishes at low density (1×10^4 per dish) were incubated overnight, tie medium was changed, and the experiments were run four hours later. First, cultures were shifted to serum-free medium, which was replaced one hour later by serum-free medium with or without the various agents (thrombin, AA or HETEs). Care was taken to avoid heat and light inactivation of the eicosanoids. Culture dishes were placed on a Zeiss inverted microscope equipped with a heated stage and viewed with a 16×phase contrast objective lens. Randomly selected fields of the cultures, containing generally about 20 cells each, were recorded, digitized and stored in the computer at the onset of the experiment and at different times thereafter.
In some cases, individual cells were monitored over different periods of time immediately after introduction of the reagent, either by mixing it into the medium or by applying it locally to one end of the cell. Local application was done with a “puffer” system that expels microliter amounts of the desired solution from a micromanipulator-controlled micropipette tip. Cell morphology was recorded, and the captured images were analyzed with a Power Macintosh computer using NIH Image. Cell process length was measured from the center of the nucleus to the end of the process. Characterization of the frequencies of pseudopod lengths, at a fixed time for each of a sequence of concentrations of reagent, utilized a gamma regression model with an inverse quadratic linear predictor (McCullagh and Nelder, Generalized Linear Models 2d ed., pp. 291-292 (Chapman & Hall, 1989), separately fit to each concentration data set. Although no formal goodness-of-fit tests were carried out, in virtually every case there was good visual representation of the pattern of response (see FIG. 14). Most data, however, are shown as whisker-box plots, where the center point represents the 50%, the ends of the box the […] and 75%, and the “whiskers” the 5% and 95% quantiles (e.g., FIG. 11). Statistical comparisons of pseudopod lengths for different treatments were done by standard non-parametric techniques (Wilcoxon Rank Sum or Kruskal-Wallis Tests), as judged appropriate. Polynomial curve fittings were done by standard least-squares techniques. Statistical analyses and graphing were done with the use of SAS procedures: Reg, Phreg, Nparlway and Plot (SAS institute Inc., Cary, N.C.).

[3] = test system: growth cones in cultures of rat cerebral cortex; assay: Growth cone collapse assay in cortical neuron culture; assay type: cell-based
Method: Neuron Culture. Cerebral cortices were dissected from embryonic day 18 Sprague-Dawley rats, cut into explants of less than 1 mm^3 and cultured on either poly-D-lysine-coated coverglass (Assistent) or poly-D-lvsine-coated tissue culture plastic. After 24 hours in B27 neurobasal medium (NB) supplemented with 10% fetal bovine serum, cultures were switched to serum-free B27/NB. The cultures were incubated at 37° C. in 5% CO2 in air. Sprouting neurons were observed readily on day 1. On day 2 or 3, long neurites were present, and the cultures were used for collapse experiments.
Actin Staining. After experimentation, cultures were fixed by slow infusion of fixative (4% paraformaldehyde in 0.1 M phosphate buffer, pH 7.4) into the culture dishes over 10 min (Pfenninger and Maylié-Pfenninger, J. Cell Biol. 89:53-546 (1981)). Thereafter, the fixative was removed by rinsing three times with phosphate-buffered saline (PBS) containing 1 mM glycine. Cultures were then blocked with PBS/1% bovine serum albumin (BSA) and permeabilized by incubation in 0.02% Triton X-100 for 5 min. After three washes in PBS/BSA, cultures were incubated with Texas-Red-conjugated phalloidin for 30 min. Unbound phalloidin was washed away by two PBS rinses, after which the coverglasses were mounted in Slow-Fade Light on microscope slides. Images were recorded on 35 mm film using a Zeiss Axiophot fluorescence microscope equipped with epiillumination.
Growth Cone Collapse Assay. Prior to repellent factor treatment, some of the day 2-3 explant cultures were pre-incubated (at 37° C.) with inhibitor or vehicle control (dimethylsulfoxide or ethanol) for 30-60 min. Cultures were then challenged with a repellent factor or vehicle control for 1-30 min. In some experiments, live cultures were photographed with a Zeiss IM 35 inverted photo microscope equipped with a stage heater, while in others cultures were fixed (as above) after 7 minutes of repellent factor treatment. Growth cone collapse was assessed quantitatively in aldehyde-fixed cultures by grading the degree of collapse in a large number of randomly selected growth cones.

12-Lox [4] = assay: Eicosanoid (HETE) generation in GCPs; assay type: biochemical, rat
Method: Eicosanoid Assays. Eicosanoid production in GCPs was measured by metabolic labelling from ^14C-AA or ^14C-AA-PC or by mass spectrometric detection. […] To measure Lox activity directly, without PLA2 involvement, ^3H-AA was the substrate of choice. Reactions were stopped by the addition of chloroform/methanol as for the phospholipase assays. Reaction products were extracted as described by Birkle et al., Neuromethods, vol. 7, pp.227-244 (Humana Press, N.J. 1988), spotted on pre-activated si gel 60 TLC plates, and the plates developed in the upper phase of ethyl acetate/isooctane/acetic acid/water (100:60:20:100). AA and HETEs were identified by co-migration with standards. Appropriate bands were counted by liquid scintillation spectrometry.
For mass-spectrometric (MS) identification of HETEs, two different strategies were pursued:
(1) the appropriate bands from non-labelled samples (PC substrate) were scraped from the TLC plate into ether/methanol (9:1) and stored under N2 at −20° C. Authentic 12(S)-HETE, run alongside in the same manner, was used as a standard. Just prior to analysis, samples were passed over an SPE filter to eliminate silica particles, dried under argon, resuspended in 500 μl ethanol, and injected (at 3 μl/min) into a Finnigan LCQ quadrupole ion trap mass spectrometer (Finnigan MAT, San Jose, Calif.) equipped with an electrospray ionization source. All spectra were acquired at a capillary temperature of 80° C., and ion guide voltages were tuned to maximize the abundance of the deprotonated ion species [M-H]^− in negative mode. In order to generate a spectrum, typically 100 single scans were averaged.
(2) For the other strategy (liquid chromatography/tandem MS, LC/MS^2), the reaction substrate consisted of 3.5 μM AA, with the addition of 3.5 μM deuterated AA (AA-D8) plus 1 μCi ^3H-AA to track reaction products by mass and radioactivity, respectively. Reactions were stopped with ice-cold ethanol, the mixtures kept overnight at −20° C. under N2, and the proteins spun out The supernatants were diluted with H2O and loaded onto 1-ml C18 Sep-Pak columns (Varian). After washing with H2O, eicosanoid was eluted with 2 ml methanol. These samples were resolved by reverse-phase HPLC, and the eluted fractions analyzed by tandem MS on-line (MacMillan and Murphy, 1995). Collision-induced decomposition of HETE isomers produced characteristic fragments that were identified at the second MS stage.

protein kinase C (PKC) = assay: MARCKS phosphorylation by PKC in isolated GCPs; assay type: biochemical, rat; conditions: isolated growth cones
From the text: FIG. 7A. Thrombin stimulates MARCKS phosphorylation in a 12-LOX-dependent manner. FIG. 7B. 12(S)-HETE stimulates MARCKS phosphorylation by PKC in isolated GCPs. […] Polypeptides were resolved by SDS-PAGE. MARCKS phosphorylation was quantified by phosphorimaging.

12-LOX [5] = conditions: Cho et al., 1991; cited from earlier work
protein kinase C = conditions: Kobayashi et al. 1989; cited from earlier work

Molecule	effect of LOX inhibitor on thrombin inhibition of migration (MAT-Lu cells [1]; CDC with thrombin, Table 1)	Mat-Lu cells crossing filter in % of control +/− SEM (MAT-Lu cells [1]; Control column (no IGF-1))	Mat-Lu cells crossing filter in % of control +/− SEM (MAT-Lu cells [1]; IGF-1 (0.75 nM))	effect of inhibitor pretreatment on AA-induced pseudopod shortening (MAT-Lu cells [2]; 15 min pretreatment, indomethacin 10 ηm, NDGA 25 μM, CDC 63 and 126 nM)	effect of agent alone on pseudopod length (MAT-Lu cells [2]; typically 15 min exposure)	effect of CDC pretreatment on 12(S)-HETE-induced collapse ([3]; 12(S)-HETE 10^−7M)	effect of inhibitor pretreatment on thrombin- or TRAP-induced growth cone collapse ([3]; CDC 10 μM, indomethacin 25 μM, pretreatment 30-45 min)	effect of inhibitor on thrombin-stimulated HETE production from AA (12-Lox [4]; 3H-AA substrate)	effect on thrombin-stimulated HETE levels (12-Lox [4]; 14C-AA-PC substrate, CDC 0.156 μM)	effect of inhibitor on thrombin-stimulated MARCKS and GAP43 phosphorylation (protein kinase C (PKC))	IC50 (12-LOX [5]) [nM]	effect of PKC inhibitor pretreatment on 12(S)-HETE-triggered pseudopod withdrawal (MAT-Lu cells [2]; 12(S)-HETE 10^−10M, calphostin 50 and 100 nM, 15 min pretreatment)	IC50 (protein kinase C) [nM]
N#CC(=Cc1ccc(O)c(O)c1)C(=O)OCC=Cc1ccccc1 [CDC, cinnamyl-3,4-dihydroxy-α-cyanocinnamate]	reverses the effect of thrombin	97.5 +/− 11.0 % of control	118 +/− 10.4 % of control	blocked the AA effect completely; also recorded: reversed the AA effect; also recorded: reversed to control levels	seemed to cause pseudopod elongation	is not affected	inhibits the thrombin effect on growth cones; also recorded: partially inhibits collapse; also recorded: almost complete inhibition of this effect	strongly inhibited	reduces thrombin-stimulated HETE levels to below control	blocks phosphorylation	63	–	–
calphostin C	–	–	–	–	–	–	–	–	–	blocks phosphorylation	–	blocks pseudopod retraction; also recorded: completely inhibited pseudopod withdrawal	50

From patent US6566047B1, “Method for identifying neurite-growth promoting agents” (The Regents of the University of Colorado, priority 1998, dated 2003)
